Measured values reported in PMC8234359, “Pharmacokinetics in Zebrafish Embryos (ZFE) Following Immersion and Intrayolk Administration: A Fluorescence-Based Analysis” (Pharmaceuticals, 2021).

Assays:
[1] = Relative Exposure (RE10/2/72h): ratio of AUC immersion to AUC IY microinjection; type: in vivo, zebrafish (Danio rerio)
Procedure: We then assessed by non-compartmental analysis the area from 0.25 to 72 h post exposure under the concentration–time curve (AUC0.25–72h) (Table 1) that represents well the relative tissue exposure to fluorescent compound across time. These absolute fluorescence intensities however cannot be comscriptpared across compounds as they depend critically on the respective quantum yields of the compounds and the device settings. To be able to compare the PK behavior of the compounds following different administration routes, we calculated the fluorescence-independent pharmacokinetic parameter Relative Exposure (RE10/2/72h), i.e., the ratio of AUC0.25–72h immersion (10 µM) to AUC0.25–72h IY microinjection (2 mg/kg). Separate RE values were calculated based on the whole body (WB), rest-of-body (RoB) and yolk fluorescence measurements (Table 2).
(§1) In order to determine the degree of tissue exposure following administration of the fluorescent compounds, we calculated the AUC as the pharmacokinetic parameter of the non-compartmental analysis. The area under a plot of the fluorescence intensity (RFUT) versus time is referred to as the area under the (zero moment) curve AUC. RFUT represents the relative amount of compound present in the ZFE by measuring the integrated fluorescence intensity of delineated contours in fluorescence images (Figure 2). The AUC was then determined by summing the incremental area of subsequent trapezoids. […] In some cases, observations were censored and excluded from the analysis, due to possible fluorescence quenching effect of compounds that remains at the site of the intrayolk microinjection.
We further calculated the Relative Exposure (RE10/2) by comparing the […] after IY microinjection (2 mg/kg), as defined in Equation (2): (2) RE10/2/h=AUCImm/AUCInj.

[2] = parameters: method as in PMID 34108572; details: experimentally determined before; cited from earlier work
[3] = Immersion of two-cell stage zebrafish embryos (10 µM), spatiotemporal fluorescence imaging and non-compartmental AUC; type: in vivo, zebrafish (Danio rerio); details: immersion 10 µM; for intrabody accumulation on longer incubations: 24–72 h; for AUC-RoB IMM (AUC0.25–72h): rest of body (non-yolk); for AUC-RoB IMM (AUC0.25–72h) / AUC-WB IMM (AUC0.25–72h) / AUC-Yolk IMM (AUC0.25–72h): 0.25 to 72 h; for AUC-WB IMM (AUC0.25–72h): whole body
Procedure: Immersion treatment: zebrafish embryos at the two-cell stage were immersed in Danieau’s medium containing the compound. A compound concentration of 10 µM and DMSO concentration of 0.1% (v/v) in a volume of 5 mL was used per well (6-well-plates). At 72 h, the zebrafish medium containing the compound was removed, and the animals rinsed 3 × with Danieau’s medium. Next, the embryos were kept for another 48 h in Danieau’s medium supplemented with DMSO (0.1%, v/v) in the absence of compound. In the case of control experiments, the embryos were exposed to Danieau’s medium supplemented with DMSO (0.1%, v/v).
Animals were kept in dark conditions in an incubator at 28.5 °C for defined time-periods (0.25, 1, 3, 6, 24, 48, 72, 96, and 120 h) before image analysis in a dark room. To acquire images, a Leica MZ10F fluorescent stereomicroscope (Leica Microsystems Inc., Buffalo Grove, IL, USA) with a 4.0× planapochromatic objective (10447243) was used, equipped with a Digital Color Camera Leica DFC310 FX (Software LAS 4.13, Leica Microsystems Inc., Buffalo Grove, IL, USA). Filter sets were GFP 10446222 in the case of compound FAMA, dSRED 10447079 in the cases of S-CY3A, CY3A and TAMRA, and CY5 10446366 in the cases of S-CY5.5A and S-CY5A. Previous to fluorescence imaging, the embryos were dechorionated (up to 72 hpf) and immobilized by hypothermia, rinsed three times with Danieau’s medium, and positioned latero-lateral (right lateral recumbency) on a single cavity glass slide and covered by a drop of agarose (0.1%). Then, using MetaMorph (Microscopy Automation and Image Analysis Software V.7.8.00, Molecular Devices, LLC., San Jose, CA, USA) and by manual delineation of the whole-body (WB) (up to 120 h) and yolk sac contours (up to 72 h) of the zebrafish embryos the fluorescence in the selected area was quantified as integrated fluorescence intensity (RFU). The RFU values of the non-yolk compartment (i.e., RoB: rest of body) was assessed by subtracting the yolk results from the corresponding integrated fluorescence intensities found in the WB.
as §1

[4] = Intrayolk (IY) microinjection of two-cell stage zebrafish embryos (2 mg/kg), spatiotemporal fluorescence imaging and non-compartmental AUC; type: in vivo, zebrafish (Danio rerio); details: for accumulation in the gastrointestinal system / localization of the dye after IY microinjection: IY microinjection 2 mg/kg; for accumulation in the gastrointestinal system: after 96 hpf; for RD (IY), Relative Distribution: ratio of AUCRoB to AUCWB after microinjection into the yolk (2 mg/kg), 0.25–72 h; for localization of the dye after IY microinjection: first hours post injection
Text: Intrayolk microinjection (IY): zebrafish embryos at the two-cell stage were positioned in a Petri dish at room temperature. […] Needles were filled with compounds dissolved in the vehicle (DMSO/saline (1:1)), placed under the microscope, and using forceps, the tip was cut off in a manner to allow for a consistent volume to be injected. Afterwards, the embryos were transferred to 6-well plates. Control embryos were exposed to vehicle only. […] Previous to fluorescence imaging, the embryos were dechorionated (up to 72 hpf) and immobilized by hypothermia, rinsed three times with Danieau's medium, and positioned latero-lateral (right lateral recumbency) on a single cavity glass slide and covered by a drop of agarose (0.1%). Then, using MetaMorph (Microscopy Automation and Image Analysis Software V.7.8.00, Molecular Devices, LLC., San Jose, CA, USA) and by manual delineation of the whole-body (WB) (up to 120 h) and yolk sac contours (up to 72 h) of the zebrafish embryos the fluorescence in the selected area was quantified as integrated fluorescence intensity (RFU). The RFU values of the non-yolk compartment (i.e., RoB: rest of body) was assessed by subtracting the yolk results from the corresponding integrated fluorescence intensities found in the WB. In order to determine the degree of tissue exposure following administration of the fluorescent compounds, we calculated the AUC as the pharmacokinetic parameter of the non-compartmental analysis. The area under a plot of the fluorescence intensity (RFUT) versus time is referred to as the area under the (zero moment) curve AUC. RFUT represents the relative amount of compound present in the ZFE by measuring the integrated fluorescence intensity of delineated contours in fluorescence images (Figure 2). The AUC was then determined by summing the incremental area of subsequent trapezoids.

[5] = rest of body (non-yolk), intrayolk microinjection 2 mg/kg, 0.25 to 72 h
[6] = whole body, intrayolk microinjection 2 mg/kg, 0.25 to 72 h
[7] = yolk, intrayolk microinjection 2 mg/kg, 0.25 to 72 h

| Compound | RE-WB (Relative Exposure RE-WB10/2/72h) ([1]; zebrafish, in vivo) | Log D [2] | intrabody accumulation on longer incubations [3] | intrabody accumulation after one hour of immersion followed by dechorionation ([3]; 1 h, dechorionated and rinsed) | AUC-RoB IMM (AUC0.25–72h) [3] | AUC-WB IMM (AUC0.25–72h) [3] | AUC-Yolk IMM (AUC0.25–72h) [3] | accumulation in the gastrointestinal system [4] | RD (IY), Relative Distribution [4] | AUC-RoB IY (AUC0.25–72h) [4, 5] | AUC-WB IY (AUC0.25–72h) [4, 6] | AUC-Yolk IY (AUC0.25–72h) [4, 7] | AUC-RoB IY (AUC0.25–72h) ([4]; zebrafish, in vivo, 2 mg/kg) | AUC-WB IY (AUC0.25–72h) ([4]; zebrafish, in vivo, 2 mg/kg) | AUC-Yolk IY (AUC0.25–72h) ([4]; zebrafish, in vivo, 2 mg/kg) | localization of the dye after IY microinjection [4] | RE-RoB (Relative Exposure RE-RoB10/2/72h) ([1]; rest of body, AUC0.25–72h immersion (10 µM) / AUC0.25–72h IY microinjection (2 mg/kg)) | RE-WB (Relative Exposure RE-WB10/2/72h) ([1]; whole body, AUC0.25–72h immersion (10 µM) / AUC0.25–72h IY microinjection (2 mg/kg)) | RE-Yolk (Relative Exposure RE-Yolk10/2/72h) ([1]; yolk, AUC0.25–72h immersion (10 µM) / AUC0.25–72h IY microinjection (2 mg/kg)) |
| --- | --- | --- | --- | --- | --- | --- | --- | --- | --- | --- | --- | --- | --- | --- | --- | --- | --- | --- | --- |
| C#CCNC(=O)CCCCCN1C(=CC=CC2=[N+](C)c3ccccc3C2(C)C)C(C)(C)c2ccccc21.[Cl-] [CY3A, Cyanine 3] | 1.11 | 1.73 | further intrabody accumulation | fast intrabody accumulation | 6.41 RFU × 10^7 | 20.9 RFU × 10^7 | 14.6 RFU × 10^7 | accumulation | 0.17 | 3.21 RFU × 10^7 | 18.9 RFU × 10^7 | 15.7 RFU × 10^7 | – | – | – | – | – | – | – |
| Rhodamine 6g 6-Isomer [Compound R6GA] | 0.10 | 1.07 | – | – | – | – | – | – | – | – | – | – | 1.48 RFU × 10^7 | 5.76 RFU × 10^7 | 4.29 RFU × 10^7 | – | – | – | – |
| C#CCNC(=O)CCCCC[N+]1=C(C=CC=CC=C2N(C)c3ccc4c(S(=O)(=O)[O-])cc(S(=O)(=O)[O-])cc4c3C2(C)C)C(C)(C)c2c1ccc1c(S(=O)(=O)[O-])cc(S(=O)(=O)[O-])cc21.[K+].[K+].[K+] [S-CY5.5A, S-Cyanine 5.5] | 0 | −1.68 | – | – | 0 RFU × 10^7 | 0 RFU × 10^7 | 0 RFU × 10^7 | – | 0.19 | 1.02 RFU × 10^7 | 5.45 RFU × 10^7 | 4.42 RFU × 10^7 | – | – | – | stayed localized to the microinjection site | – | – | – |
| C#CCNC(=O)c1ccc2c(c1)C(=O)OC21c2ccc(O)cc2Oc2cc(O)ccc21 [FAMA, Fam A, 5-Isomer] | 0.05 | −0.14 | – | – | 0.84 RFU × 10^7 | 1.17 RFU × 10^7 | 0.36 RFU × 10^7 | accumulation | 0.32 | 6.93 RFU × 10^7 | – | 14.9 RFU × 10^7 | – | – | – | – | – | – | – |
| C#CCNC(=O)CCCCCN1C(=CC=CC2=[N+](C)c3ccc(S(=O)(=O)[O-])cc3C2(C)C)C(C)(C)c2cc(S(=O)(=O)[O-])ccc21.[K+] [S-CY3A, S-Cyanine 3] | 0.15 | −1.96 | – | – | 2.67 RFU × 10^7 | 4.56 RFU × 10^7 | 1.89 RFU × 10^7 | accumulation | 0.24 | 7.65 RFU × 10^7 | 31.4 RFU × 10^7 | 23.8 RFU × 10^7 | – | – | – | stayed localized to the microinjection site | – | – | – |
| S-Cyanine 5A [S-CY5A] | 0 | −0.72 | – | – | 0 RFU × 10^7 | 0 RFU × 10^7 | 0 RFU × 10^7 | – | 0.18 | 1.67 RFU × 10^7 | 9.49 RFU × 10^7 | 7.82 RFU × 10^7 | – | – | – | stayed localized to the microinjection site | – | – | – |
| C#CCNC(=O)c1ccc(-c2c3ccc(=[N+](C)C)cc-3oc3cc(N(C)C)ccc23)c(C(=O)[O-])c1 (single isomer, unassigned) [TAMRA] | – | 0.46 | further intrabody accumulation | – | 2.78 RFU × 10^7 | 7.76 RFU × 10^7 | 4.98 RFU × 10^7 | accumulation | 0.28 | 11.2 RFU × 10^7 | 40.4 RFU × 10^7 | 29.1 RFU × 10^7 | – | – | – | – | 0.25 | 0.19 | 0.17 |
